For 22 compounds, EC50 results are on record in ChEMBL document CHEMBL2401682, “Evaluation of Jatropha isabelli natural products and their synthetic analogs as potential antimalarial therapeutic agents” (Eur J Med Chem, 2013).

One assay relates to HEK293. The assay can be described thus: Cytotoxicity against HEK293 cells after 72 hrs by celltiter-glo assay. In kind it is cell-based. To be noted: Homo sapiens, HEK293, 72 h. A general note: In ATP-based viability assays light output follows the ATP content of the culture.
Another assay concerns BJ. The assay can be described thus: Cytotoxicity against human BJ cells after 72 hrs by celltiter-glo assay. In kind it is cell-based.
The next assay has as its system HepG2. The assay can be described thus: Cytotoxicity against human HepG2 cells after 72 hrs by celltiter-glo assay. In kind it is cell-based. To be noted: HepG2, 72 h.
The next assay has as its system Raji. The experiment in a line: Cytotoxicity against human Raji cells after 72 hrs by celltiter-glo assay. In kind it is cell-based.
For assay [1], the system named is Plasmodium falciparum. The experiment in a line: Antimalarial activity against chloroquine and pyrimethamine-resistant Plasmodium falciparum K1 infected in O-positive erythrocytes assessed as parasite growth inhibition after 72 hrs by DNA staining-based assay. In kind it is functional, organism-based. To be noted: K1, 72 h.
Assay [2] concerns Plasmodium falciparum. The assay can be described thus: Antimalarial activity against chloroquine-sensitive Plasmodium falciparum 3D7 infected in O-positive erythrocytes assessed as parasite growth inhibition after 72 hrs by DNA staining-based assay. In kind it is functional, organism-based. To be noted: 3D7, 72 h.

On to `CC1=C2CC(C)(C)/C=C/[C@H](O)/C(C)=C\C3=C[C@H](C)C[C@]3(O2)C1=O`, for which the EC50 (usually the concentration that produces a half-maximal response) with HEK293 stood at 26 µM; with BJ it was 10.6 µM; with HepG2 it was 18.7 µM; in the assay on Raji, 26 µM; in the assay on Plasmodium falciparum [1], 15 µM; with Plasmodium falciparum [2] it was 9.23 µM.
Turning to `CC1=C2CC(C)(C)/C=C/[C@H](OC(=S)n3ccnc3)/C(C)=C\C3=C[C@H](C)C[C@]3(O2)C1=O`, the concentration for a half-maximal effect (EC50) in the assay with HEK293 came to 26 µM; in the assay on BJ, 26 µM; in the assay with HepG2, 26 µM; with Raji it was 26 µM; in the assay with Plasmodium falciparum [1], 5.85 µM; in the assay with Plasmodium falciparum [2], 5.67 µM.
`CCOC(=O)CNC(=O)[C@H](CS[C@H]1[C@@H]2C(=O)/C(C)=C\C3=C[C@H](C)C[C@@]34O[C@]2(CC1(C)C)[C@@H](C)C4=O)NC(=O)CC[C@H](N)C(=O)O`: the EC50 with HEK293 was 26 µM; with BJ, 12.5 µM; with HepG2, 26 µM; in the assay on Raji it was 6.09 µM; in the assay on Plasmodium falciparum [1], 15 µM; in the assay with Plasmodium falciparum [2], 15 µM.
In the case of `C[C@@H]1C[C@@]23O[C@@]45CC(C)(C)[C@@H](Sc6ccccc6)[C@@H]4C(=O)C(C)(C=C2[C@H]1Sc1ccccc1)[C@]3(O)[C@@H]5C` (stereo partly specified), the EC50 with HEK293 turned out to be 26 µM; in the assay on BJ, 26 µM; in the assay on HepG2, 26 µM; in the assay on Raji, 26 µM; with Plasmodium falciparum [1], 5.57 µM; in the assay with Plasmodium falciparum [2] it was 6.45 µM.
With `C=C1/C=C/C(C)(C)CC2=C(C)C(=O)[C@]3(C[C@@H](C)C=C3/C=C\1C)O2`, the EC50 worked out at 26 µM in the assay with HEK293; 26 µM with BJ; 26 µM in the assay on HepG2; 26 µM in the assay with Raji; 15 µM with Plasmodium falciparum [1]; 15 µM with Plasmodium falciparum [2].
As for `CC(=O)O[C@H]1/C=C/C(C)(C)CC2=C(C)[C@@H](OC(C)=O)[C@]3(C[C@@H](C)C=C3/C=C\1C)O2`, the EC50 with HEK293 was determined as 26 µM; in the assay with BJ, 26 µM; in the assay with HepG2, 26 µM; in the assay on Raji, 26 µM; in the assay on Plasmodium falciparum [1], 15 µM; in the assay with Plasmodium falciparum [2], 5.68 µM.
As to `COc1ccc(/C2=C\C(=O)/C(C)=C\C3=C[C@H](C)C[C@@]34OC(=C(C)C4=O)CC2(C)C)cc1`, the EC50 in the assay on HEK293 is 26 µM; in the assay on BJ, 26 µM; in the assay on HepG2, 26 µM; in the assay with Raji, 26 µM; in the assay on Plasmodium falciparum [1] it was 15 µM; with Plasmodium falciparum [2] it was 15 µM.
In the case of `CC1=C2CC(C)(C)/C=C/C(=O)/C(C)=C\C3=C[C@H](C)C[C@]3(O2)[C@]1(C)O`, the EC50 came to 26 µM with HEK293; 26 µM with BJ; 26 µM with HepG2; 26 µM in the assay with Raji; 15 µM in the assay with Plasmodium falciparum [1]; 0.624 µM with Plasmodium falciparum [2].
As to `CC1=C2CC(C)(C)CCC(=O)C(C)CC3=C[C@H](C)C[C@]3(O2)C1=O` (mixture of isomers), the EC50 in the assay with HEK293 came out at 26 µM; in the assay on BJ, 26 µM; with HepG2 it was 26 µM; in the assay on Raji, 26 µM; in the assay with Plasmodium falciparum [1], 15 µM; in the assay with Plasmodium falciparum [2] it was 15 µM.
Take `CC(=O)O[C@@H]1/C=C/C(C)(C)CC2=C(C)C(=O)[C@]3(C[C@@H](C)C=C3/C=C\1C)O2`: the EC50 in the assay with HEK293 turned out to be 26 µM; in the assay on BJ, 26 µM; in the assay with HepG2, 26 µM; with Raji it was 26 µM; in the assay on Plasmodium falciparum [1] it was 15 µM; with Plasmodium falciparum [2], 1.63 µM.
`C/C1=C/C2=C[C@H](C)C[C@@]23O[C@]2(CC(C)(C)C4CC1(ON4)O2)C(C)C3=O` (stereo partly specified): the EC50 worked out at 26 µM in the assay with HEK293; 26 µM in the assay on BJ; 26 µM in the assay on HepG2; 26 µM with Raji; 15 µM in the assay with Plasmodium falciparum [1]; 15 µM in the assay with Plasmodium falciparum [2].
As for `CC1=C2CC(C)(C)/C=C/C/C(C)=C\C3=C[C@H](C)C[C@]3(O2)C1=O`, the EC50 in the assay with HEK293 was 26 µM; with BJ, 26 µM; with HepG2, 26 µM; in the assay with Raji, 26 µM; in the assay on Plasmodium falciparum [1], 15 µM; with Plasmodium falciparum [2], 15 µM.
Consider `CC1=C2CC(C)(C)/C(c3ccccc3)=C/C(=O)/C(C)=C\C3=C[C@H](C)C[C@]3(O2)C1=O`, for which the EC50 with HEK293 stood at 26 µM; in the assay with BJ, 26 µM; in the assay on HepG2 it was 26 µM; in the assay with Raji it was 26 µM; in the assay with Plasmodium falciparum [1] it was 15 µM; in the assay on Plasmodium falciparum [2], 15 µM.
In the case of `C/C1=C/C2=C[C@H](C)C[C@@]23O[C@]2(CC(C)(C)C[C@@H]2[C@@H]1OC(=S)Sc1ccccc1)[C@@H](C)C3=O`, the EC50 worked out at 17.8 µM with HEK293; 26 µM with BJ; 26 µM in the assay on HepG2; 26 µM with Raji; 5.69 µM with Plasmodium falciparum [1]; 8.88 µM with Plasmodium falciparum [2].
Regarding `CC1=C2CC(C)(C)CCC(=O)C(C)CC3C[C@H](C)C[C@]3(O2)C1=O` (mixture of isomers), the EC50 in the assay on HEK293 stood at 26 µM; in the assay on BJ, 26 µM; in the assay on HepG2 it was 26 µM; in the assay with Raji, 26 µM; with Plasmodium falciparum [1] it was 15 µM; with Plasmodium falciparum [2], 15 µM.
For `C/C1=C/[C@]23O[C@H]2[C@H](C)C=C3C(=O)[C@@](C)(O)C(=O)CC(C)(C)/C=C/C1=O`, the EC50 with HEK293 is 26 µM; in the assay with BJ, 26 µM; in the assay on HepG2, 26 µM; with Raji it was 26 µM; with Plasmodium falciparum [1], 15 µM; in the assay with Plasmodium falciparum [2], 15 µM.
As to `COC(=O)C1=C2C[C@@H]3CC[C@@H](C)[C@]2(CC1)C3(C)C`, the EC50 in the assay on HEK293 stood at 26 µM; in the assay on BJ, 26 µM; in the assay with HepG2, 26 µM; in the assay with Raji, 26 µM; in the assay with Plasmodium falciparum [1], 15 µM; in the assay with Plasmodium falciparum [2] it was 15 µM.
`C/C1=C/C2=C[C@H](C)CC2(Br)C(=O)[C@@]2(C)O[C@@H]([C@@H](Br)C1=O)C(C)(C)CC2=O` (stereo partly specified): the EC50 in the assay on HEK293 is 26 µM; in the assay on BJ it was 26 µM; with HepG2, 26 µM; in the assay on Raji, 26 µM; in the assay with Plasmodium falciparum [1] it was 15 µM; with Plasmodium falciparum [2], 15 µM.
On to `C[C@@H]1CC[C@H]2CC3C(=O)CC[C@@]31C2(C)C` (stereo partly specified), for which the EC50 in the assay on HEK293 worked out at 26 µM; with BJ, 26 µM; in the assay with HepG2, 26 µM; with Raji, 26 µM; in the assay with Plasmodium falciparum [1] it was 15 µM; with Plasmodium falciparum [2] it was 15 µM.
Consider `CC1=C2CC(C)(C)/C=C/[C@H](OC(=S)Sc3ccccc3)/C(C)=C\C3=C[C@H](C)C[C@]3(O2)C1=O`, for which the EC50 in the assay on HEK293 worked out at 26 µM; in the assay on BJ, 26 µM; with HepG2, 26 µM; in the assay with Raji, 26 µM; in the assay on Plasmodium falciparum [1], 15 µM; in the assay with Plasmodium falciparum [2] it was 15 µM.
Take `CC1=C2CC(C)(C)/C=C/[C@@H](O)/C(C)=C\C3=C[C@H](C)C[C@]3(O2)C1=O`: the EC50 in the assay with HEK293 was 26 µM; in the assay with BJ it was 26 µM; in the assay on HepG2 it was 26 µM; in the assay on Raji, 26 µM; with Plasmodium falciparum [1] it was 15 µM; in the assay with Plasmodium falciparum [2], 0.744 µM.
On to `C[C@@H]1CC[C@H]2CC3=C(C(=O)O)CC[C@@]31C2(C)C`, for which the EC50 in the assay on HEK293 is 26 µM; with HepG2, 26 µM; in the assay on Raji it was 26 µM; with Plasmodium falciparum [1], 15 µM; in the assay on Plasmodium falciparum [2] it was 15 µM.
